Test results: ChEMBL document CHEMBL6114977, “Identification and optimization of a small molecule inhibitor of the ovarian tumor protease of the Crimean-Congo hemorrhagic fever virus” (Bioorg Med Chem, 2025)
Activity calls are given as the source filed them. The rule behind the calls is not given here.

How the values were obtained:
[1] = target: T1, RNA-directed RNA polymerase L (Crimean-Congo hemorrhagic fever virus, UniProt Q6TQR6); test: (§1) Inhibition of CCHF OTU (ovarian tumor) protease (1 to 169 residues) extracted from Escherichia coli BL21 (DE3) cells using ubiquitin rhodamine 110 as substrate incubated for 30 mins by fluorescence based SynergyH1 plate reader analysis
[2] = target: Ubiquitin carboxyl-terminal hydrolase 7 (Homo sapiens) (UniProt Q93009); test: Inhibition of human USP7 using ubiquitin rhodamine 110 as substrate at 50 uM incubated for 30 mins by fluorescence based SynergyH1 plate reader analysis
[3] = target: T1, RNA-directed RNA polymerase L; test: Inhibition of CCHF OTU (ovarian tumor) protease (1 to 169 residues) extracted from Escherichia coli BL21 (DE3) cells assessed as inhibition constant by fluorescence based SynergyH1 plate reader analysis
[4] = target: RNA-directed RNA polymerase L (Crimean-Congo hemorrhagic fever virus) (UniProt Q6TQR6); test: as §1
[5] = target: T2, OTU domain-containing protein 1 (Homo sapiens) (UniProt Q5VV17); test: Inhibition of human OTUD1 using ubiquitin rhodamine 110 as substrate at 50 uM incubated for 30 mins by fluorescence based SynergyH1 plate reader analysis
T2 sequence (whole entry): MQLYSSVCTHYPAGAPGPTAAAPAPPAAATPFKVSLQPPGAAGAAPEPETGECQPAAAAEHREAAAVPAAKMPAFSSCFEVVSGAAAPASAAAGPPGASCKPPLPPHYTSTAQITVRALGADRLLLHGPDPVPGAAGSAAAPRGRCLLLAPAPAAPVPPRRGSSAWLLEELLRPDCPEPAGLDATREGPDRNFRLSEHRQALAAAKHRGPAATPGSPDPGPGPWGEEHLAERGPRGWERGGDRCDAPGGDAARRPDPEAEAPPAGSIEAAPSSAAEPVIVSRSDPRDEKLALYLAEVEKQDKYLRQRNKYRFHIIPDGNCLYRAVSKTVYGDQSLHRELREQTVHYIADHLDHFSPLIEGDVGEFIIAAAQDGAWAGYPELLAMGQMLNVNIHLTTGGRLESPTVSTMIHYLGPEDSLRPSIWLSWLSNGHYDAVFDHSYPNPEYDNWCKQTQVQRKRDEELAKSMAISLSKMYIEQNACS

[6] = target: T3, OTU domain-containing protein 7B (Homo sapiens) (UniProt Q6GQQ9); test: Inhibition of human cezanne using ubiquitin rhodamine 110 as substrate at 50 uM incubated for 30 mins by fluorescence based SynergyH1 plate reader analysis
T3 sequence (whole entry): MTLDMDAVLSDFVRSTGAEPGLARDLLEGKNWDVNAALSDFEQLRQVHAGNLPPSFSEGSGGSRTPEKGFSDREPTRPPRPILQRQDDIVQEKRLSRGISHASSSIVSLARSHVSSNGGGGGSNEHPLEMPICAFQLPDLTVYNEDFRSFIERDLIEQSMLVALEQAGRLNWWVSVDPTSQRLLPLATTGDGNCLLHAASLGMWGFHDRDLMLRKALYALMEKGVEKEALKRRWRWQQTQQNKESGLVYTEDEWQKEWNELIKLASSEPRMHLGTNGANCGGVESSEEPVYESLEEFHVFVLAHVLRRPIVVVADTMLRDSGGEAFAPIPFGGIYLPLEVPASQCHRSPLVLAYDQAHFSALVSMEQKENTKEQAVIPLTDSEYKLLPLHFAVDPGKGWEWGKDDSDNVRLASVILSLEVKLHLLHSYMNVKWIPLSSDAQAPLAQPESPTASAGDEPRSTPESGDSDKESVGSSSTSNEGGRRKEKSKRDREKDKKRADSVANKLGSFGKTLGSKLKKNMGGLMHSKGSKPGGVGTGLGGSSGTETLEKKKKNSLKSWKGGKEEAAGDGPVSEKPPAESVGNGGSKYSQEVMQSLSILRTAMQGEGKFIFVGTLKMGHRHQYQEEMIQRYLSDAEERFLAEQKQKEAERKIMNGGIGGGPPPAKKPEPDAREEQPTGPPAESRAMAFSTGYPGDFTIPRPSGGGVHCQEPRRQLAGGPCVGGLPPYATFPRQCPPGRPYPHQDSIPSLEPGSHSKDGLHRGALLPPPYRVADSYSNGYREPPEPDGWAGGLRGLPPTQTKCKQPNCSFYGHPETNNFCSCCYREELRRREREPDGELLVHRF

[7] = target: T4, Ubiquitin carboxyl-terminal hydrolase isozyme L5 (Homo sapiens) (UniProt Q9Y5K5); test: Inhibition of human UCHL5 using ubiquitin rhodamine 110 as substrate at 50 uM incubated for 30 mins by fluorescence based SynergyH1 plate reader analysis
T4 sequence (whole entry): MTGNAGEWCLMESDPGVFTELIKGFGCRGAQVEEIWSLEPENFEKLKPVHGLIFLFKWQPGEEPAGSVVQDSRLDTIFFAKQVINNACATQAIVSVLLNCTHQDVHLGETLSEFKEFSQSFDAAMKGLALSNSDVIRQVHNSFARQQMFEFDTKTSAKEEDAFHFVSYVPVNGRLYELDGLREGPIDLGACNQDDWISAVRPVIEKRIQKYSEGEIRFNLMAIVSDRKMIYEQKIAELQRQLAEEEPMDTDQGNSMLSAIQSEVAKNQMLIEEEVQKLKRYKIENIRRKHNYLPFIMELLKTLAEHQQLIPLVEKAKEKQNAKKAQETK

[8] = tested on: Fc1cc(Nc2nc(-c3ccc(C(F)(F)F)cc3)cs2)ccc1-c1nnn[nH]1; test: Competitive inhibition of CCHF OTU (ovarian tumor) protease (1 to 169 residues) extracted from Escherichia coli BL21 (DE3) cells using ubiquitin rhodamine 110 as substrate assessed as Km by Michaelis-Menten analysis (reference value: 31.6 nM); settings: Crimean-Congo hemorrhagic fever virus

T1 sequence (Q6TQR6 whole entry, the tested form may be a part): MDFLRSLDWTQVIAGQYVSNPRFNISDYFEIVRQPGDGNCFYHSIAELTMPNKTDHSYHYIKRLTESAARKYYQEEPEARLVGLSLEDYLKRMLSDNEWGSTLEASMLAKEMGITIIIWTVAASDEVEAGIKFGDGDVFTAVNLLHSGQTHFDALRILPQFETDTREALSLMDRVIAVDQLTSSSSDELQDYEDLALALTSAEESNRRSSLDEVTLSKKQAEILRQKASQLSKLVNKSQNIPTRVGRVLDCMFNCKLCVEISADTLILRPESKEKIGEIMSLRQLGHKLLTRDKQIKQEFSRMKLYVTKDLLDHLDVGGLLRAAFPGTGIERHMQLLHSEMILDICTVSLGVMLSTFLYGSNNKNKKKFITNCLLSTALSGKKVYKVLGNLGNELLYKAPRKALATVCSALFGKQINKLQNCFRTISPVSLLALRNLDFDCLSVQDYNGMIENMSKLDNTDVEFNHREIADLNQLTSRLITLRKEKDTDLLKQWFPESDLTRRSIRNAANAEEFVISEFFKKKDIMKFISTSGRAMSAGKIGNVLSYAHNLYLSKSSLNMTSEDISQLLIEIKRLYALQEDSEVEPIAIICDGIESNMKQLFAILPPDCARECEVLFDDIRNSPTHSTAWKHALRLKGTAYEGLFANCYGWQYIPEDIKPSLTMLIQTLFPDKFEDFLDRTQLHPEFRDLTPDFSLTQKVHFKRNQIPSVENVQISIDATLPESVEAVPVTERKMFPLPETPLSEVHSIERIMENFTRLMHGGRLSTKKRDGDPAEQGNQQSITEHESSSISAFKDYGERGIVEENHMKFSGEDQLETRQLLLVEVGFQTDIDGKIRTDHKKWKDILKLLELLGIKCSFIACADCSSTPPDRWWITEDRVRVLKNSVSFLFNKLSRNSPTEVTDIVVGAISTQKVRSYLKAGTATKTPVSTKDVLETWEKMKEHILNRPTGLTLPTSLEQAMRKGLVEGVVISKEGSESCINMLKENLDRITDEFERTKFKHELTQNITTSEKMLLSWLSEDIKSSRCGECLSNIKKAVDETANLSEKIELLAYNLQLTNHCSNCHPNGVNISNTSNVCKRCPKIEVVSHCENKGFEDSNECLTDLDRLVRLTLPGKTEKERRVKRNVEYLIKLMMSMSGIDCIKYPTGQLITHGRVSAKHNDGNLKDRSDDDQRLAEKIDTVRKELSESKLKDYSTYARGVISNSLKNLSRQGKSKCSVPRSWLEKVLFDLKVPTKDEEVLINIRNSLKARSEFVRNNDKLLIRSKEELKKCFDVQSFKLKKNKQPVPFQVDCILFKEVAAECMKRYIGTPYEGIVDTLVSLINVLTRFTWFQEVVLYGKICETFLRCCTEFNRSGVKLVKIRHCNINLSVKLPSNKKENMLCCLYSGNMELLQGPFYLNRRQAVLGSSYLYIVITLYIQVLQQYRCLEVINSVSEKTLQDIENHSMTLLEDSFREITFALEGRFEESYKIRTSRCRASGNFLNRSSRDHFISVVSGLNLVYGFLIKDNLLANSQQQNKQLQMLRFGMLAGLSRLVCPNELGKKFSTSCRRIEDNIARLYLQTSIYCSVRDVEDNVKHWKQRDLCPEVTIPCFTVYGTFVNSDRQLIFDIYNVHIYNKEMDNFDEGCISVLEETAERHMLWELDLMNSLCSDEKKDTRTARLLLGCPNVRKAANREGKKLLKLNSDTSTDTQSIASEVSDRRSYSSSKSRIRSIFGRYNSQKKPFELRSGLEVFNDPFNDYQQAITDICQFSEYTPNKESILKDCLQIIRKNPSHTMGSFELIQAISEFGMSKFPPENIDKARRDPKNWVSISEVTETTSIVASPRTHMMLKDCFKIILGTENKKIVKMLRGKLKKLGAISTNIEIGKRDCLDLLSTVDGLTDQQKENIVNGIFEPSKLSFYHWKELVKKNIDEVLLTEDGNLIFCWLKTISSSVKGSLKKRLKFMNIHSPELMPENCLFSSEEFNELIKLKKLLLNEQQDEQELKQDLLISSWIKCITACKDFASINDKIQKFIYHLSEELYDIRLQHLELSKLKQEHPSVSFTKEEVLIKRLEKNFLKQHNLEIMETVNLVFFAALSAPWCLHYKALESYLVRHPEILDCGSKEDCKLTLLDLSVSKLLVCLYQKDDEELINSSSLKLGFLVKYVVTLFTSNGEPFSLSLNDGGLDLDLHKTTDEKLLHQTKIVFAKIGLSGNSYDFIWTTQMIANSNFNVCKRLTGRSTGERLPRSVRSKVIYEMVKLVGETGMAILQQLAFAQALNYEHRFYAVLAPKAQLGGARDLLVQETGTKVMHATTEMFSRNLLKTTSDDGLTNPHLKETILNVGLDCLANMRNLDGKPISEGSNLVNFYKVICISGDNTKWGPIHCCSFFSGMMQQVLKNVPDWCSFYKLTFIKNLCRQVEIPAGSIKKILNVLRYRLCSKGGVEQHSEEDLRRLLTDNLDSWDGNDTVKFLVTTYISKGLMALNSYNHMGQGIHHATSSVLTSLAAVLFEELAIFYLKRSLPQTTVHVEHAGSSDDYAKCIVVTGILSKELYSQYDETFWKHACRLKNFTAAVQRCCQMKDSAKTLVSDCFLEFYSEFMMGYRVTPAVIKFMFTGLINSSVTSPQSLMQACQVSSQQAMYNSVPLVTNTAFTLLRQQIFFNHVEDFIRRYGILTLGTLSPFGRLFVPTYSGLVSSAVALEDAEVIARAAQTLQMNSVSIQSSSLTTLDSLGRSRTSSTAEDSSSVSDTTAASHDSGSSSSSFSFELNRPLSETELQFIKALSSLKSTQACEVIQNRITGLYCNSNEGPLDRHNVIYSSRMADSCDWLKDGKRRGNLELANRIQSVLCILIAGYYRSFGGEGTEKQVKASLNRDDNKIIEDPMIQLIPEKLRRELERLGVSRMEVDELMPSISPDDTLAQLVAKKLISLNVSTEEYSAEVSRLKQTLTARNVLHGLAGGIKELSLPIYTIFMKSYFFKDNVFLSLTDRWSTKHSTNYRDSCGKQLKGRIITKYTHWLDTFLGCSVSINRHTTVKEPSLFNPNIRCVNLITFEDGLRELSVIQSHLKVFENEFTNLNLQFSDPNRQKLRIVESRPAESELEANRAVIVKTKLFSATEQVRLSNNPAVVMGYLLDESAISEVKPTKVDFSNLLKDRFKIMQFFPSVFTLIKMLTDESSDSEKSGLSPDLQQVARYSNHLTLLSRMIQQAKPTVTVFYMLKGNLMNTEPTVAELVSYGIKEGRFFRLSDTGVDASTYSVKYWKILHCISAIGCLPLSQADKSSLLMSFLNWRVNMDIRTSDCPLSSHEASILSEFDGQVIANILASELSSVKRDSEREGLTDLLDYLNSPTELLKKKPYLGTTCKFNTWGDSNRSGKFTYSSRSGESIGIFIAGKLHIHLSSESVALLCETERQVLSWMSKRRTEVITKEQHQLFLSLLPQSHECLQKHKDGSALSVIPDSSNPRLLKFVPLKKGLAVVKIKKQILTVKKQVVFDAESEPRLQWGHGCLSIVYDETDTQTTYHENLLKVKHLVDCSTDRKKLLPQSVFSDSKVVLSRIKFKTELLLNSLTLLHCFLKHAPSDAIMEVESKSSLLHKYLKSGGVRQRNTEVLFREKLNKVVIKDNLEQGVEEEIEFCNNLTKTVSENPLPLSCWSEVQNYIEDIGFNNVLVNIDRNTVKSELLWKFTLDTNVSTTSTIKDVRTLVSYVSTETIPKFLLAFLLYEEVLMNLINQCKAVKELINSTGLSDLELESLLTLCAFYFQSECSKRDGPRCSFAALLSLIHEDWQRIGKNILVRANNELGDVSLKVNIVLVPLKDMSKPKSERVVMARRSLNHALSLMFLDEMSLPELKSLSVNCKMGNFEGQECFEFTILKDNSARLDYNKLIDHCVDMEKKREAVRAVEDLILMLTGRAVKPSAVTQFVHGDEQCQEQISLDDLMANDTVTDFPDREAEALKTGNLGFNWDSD
Sequence of Ubiquitin carboxyl-terminal hydrolase 7 (Homo sapiens) (Q93009 whole entry, looked up, the tested form may be a part): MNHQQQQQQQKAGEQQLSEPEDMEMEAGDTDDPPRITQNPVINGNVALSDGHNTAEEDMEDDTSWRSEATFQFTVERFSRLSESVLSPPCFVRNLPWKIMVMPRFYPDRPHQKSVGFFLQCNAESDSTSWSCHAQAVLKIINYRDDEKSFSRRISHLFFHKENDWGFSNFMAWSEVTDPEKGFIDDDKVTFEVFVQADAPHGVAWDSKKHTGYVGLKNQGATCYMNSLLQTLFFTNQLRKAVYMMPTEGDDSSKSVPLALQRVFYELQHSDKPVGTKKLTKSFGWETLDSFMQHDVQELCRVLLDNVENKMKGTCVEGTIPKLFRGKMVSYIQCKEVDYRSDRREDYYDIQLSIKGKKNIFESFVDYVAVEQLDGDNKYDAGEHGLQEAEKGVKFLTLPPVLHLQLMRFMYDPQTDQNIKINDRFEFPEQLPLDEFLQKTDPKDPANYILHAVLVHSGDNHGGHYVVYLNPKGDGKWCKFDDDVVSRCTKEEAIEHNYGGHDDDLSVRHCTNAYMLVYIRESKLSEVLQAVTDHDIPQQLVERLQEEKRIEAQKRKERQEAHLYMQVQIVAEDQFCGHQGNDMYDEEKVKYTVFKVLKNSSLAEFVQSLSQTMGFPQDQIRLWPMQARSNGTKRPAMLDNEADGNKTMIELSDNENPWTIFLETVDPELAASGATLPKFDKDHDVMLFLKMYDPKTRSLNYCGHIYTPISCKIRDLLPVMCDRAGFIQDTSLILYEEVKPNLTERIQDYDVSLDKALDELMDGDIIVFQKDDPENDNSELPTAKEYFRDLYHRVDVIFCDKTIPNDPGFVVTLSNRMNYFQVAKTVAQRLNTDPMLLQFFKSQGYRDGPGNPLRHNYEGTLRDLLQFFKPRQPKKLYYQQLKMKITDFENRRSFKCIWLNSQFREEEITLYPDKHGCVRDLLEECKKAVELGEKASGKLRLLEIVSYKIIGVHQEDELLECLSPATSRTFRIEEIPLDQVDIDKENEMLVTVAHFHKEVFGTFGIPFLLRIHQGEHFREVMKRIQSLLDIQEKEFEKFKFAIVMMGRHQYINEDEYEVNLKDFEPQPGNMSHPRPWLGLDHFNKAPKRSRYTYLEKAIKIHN

Compound	IC50 [1]	Ki [3]	further results
NS(=O)(=O)c1ccc(Nc2nc(-c3ccc(C(F)(F)F)cc3)cs2)cc1	> 100 µM	–	–
Cc1cc(NS(=O)(=O)c2ccc(Nc3nc(-c4ccc(OC(F)(F)F)cc4)cs3)cc2)no1	> 100 µM	–	–
Cc1cc(NS(=O)(=O)c2ccc(Nc3nc(-c4ccccc4C(F)(F)F)cs3)cc2)no1	> 100 µM	–	–
Cc1cc(NS(=O)(=O)c2ccc(Nc3nc(-c4ccccc4F)cs3)cc2)no1	> 100 µM	–	–
Cc1cc(NS(=O)(=O)c2ccc(Nc3nc(-c4ccccc4Cl)cs3)cc2)no1	> 100 µM	–	–
N#Cc1ccc(Nc2nc(-c3ccc(C(F)(F)F)cc3)cs2)cc1	> 100 µM	–	–
Cc1cc(NS(=O)(=O)c2ccc(Nc3nc(-c4cccc(F)c4)cs3)cc2)no1	> 100 µM	–	–
FC(F)(F)c1ccc(-c2csc(Nc3ccc(-c4nnn[nH]4)cn3)n2)cc1	18.2 µM	11.1 µM	inhibition [2]: Active
Cc1cc(NS(=O)(=O)c2ccc(Nc3nc(-c4ccc(C(F)(F)F)cc4)cs3)cc2)no1	51 µM	31.2 µM	–
COc1ccc(-c2csc(Nc3ccc(S(=O)(=O)Nc4cc(C)on4)cc3)n2)cc1	> 100 µM	–	–
FC(F)(F)c1ccc(-c2ccnc(Nc3ccc(-c4nnn[nH]4)cc3)n2)cc1	38.4 µM	23.5 µM	inhibition [2]: Active
Cc1cc(NS(=O)(=O)c2ccc(Nc3nc(-c4ccc(O)cc4)cs3)cc2)no1	> 100 µM	–	–
FC(F)(F)c1ccc(-c2csc(Nc3ccc(-c4nnn[nH]4)c4c3CCC4)n2)cc1	17.3 µM	10.6 µM	inhibition [2]: Active
COc1ccccc1-c1csc(Nc2ccc(S(=O)(=O)Nc3cc(C)on3)cc2)n1	> 100 µM	–	–
Cc1cc(NS(=O)(=O)c2ccc(Nc3nc(-c4ccc(O)cc4O)cs3)cc2)no1	42.3 µM	25.9 µM	inhibition [4]: Dose-dependent-effect
Cc1cc(NS(=O)(=O)c2ccc(Nc3nc(-c4cccc(C(F)(F)F)c4)cs3)cc2)no1	> 100 µM	–	–
Cc1cc(NS(=O)(=O)c2ccc(Nc3nc(-c4ccccn4)cs3)cc2)no1	> 100 µM	–	–
COc1cccc(-c2csc(Nc3ccc(S(=O)(=O)Nc4cc(C)on4)cc3)n2)c1	> 100 µM	–	–
O=C(O)Cc1ccc(Nc2nc(-c3ccc(C(F)(F)F)cc3)cs2)cc1	> 100 µM	–	–
Cc1cc(-c2nnn[nH]2)ccc1Nc1nc(-c2ccc(C(F)(F)F)cc2)cs1	19.4 µM	11.9 µM	inhibition [2]: Active

Compound	IC50 [1]	Ki [3]	further results
Cc1cc(NS(=O)(=O)c2ccc(Nc3nc(-c4ccc(F)cc4)cs3)cc2)no1	86 µM	52.7 µM	–
Cc1cc(NS(=O)(=O)c2ccc(Nc3nc(-c4ccc(C#N)cc4)cs3)cc2)no1	> 100 µM	–	–
Cc1cc(NS(=O)(=O)c2ccc(Nc3nc(-c4ccc(Cl)cc4)cs3)cc2)no1	62.9 µM	38.5 µM	–
O=C(O)c1ccc(Nc2nc(-c3ccc(C(F)(F)F)cc3)cs2)cc1	> 50 µM	–	–
Cc1cc(NS(=O)(=O)c2ccc(Nc3nc(-c4ccc(Br)cc4)cs3)cc2)no1	54.3 µM	33.2 µM	–
FC(F)(F)c1ccc(-c2csc(Nc3ccc(-c4nnn[nH]4)cc3)n2)cc1	16.7 µM	10.2 µM	inhibition [2]: Active
FC(F)(F)c1ccc(-c2csc(Nc3ccc(-c4nnn[nH]4)c(Cl)c3)n2)cc1	11.9 µM	7.3 µM	inhibition [5]: Active; inhibition [6]: Active; inhibition [7]: Active; inhibition [2]: Active
O=S(=O)(O)c1ccc(Nc2nc(-c3ccc(C(F)(F)F)cc3)cs2)cc1	41.8 µM	25.6 µM	–
FC(F)(F)c1ccc(-c2csc(Nc3ccc(-c4nnn[nH]4)nc3)n2)cc1	> 100 µM	–	–
Cc1cc(NS(=O)(=O)c2ccc(Nc3nc(-c4cccnc4)cs3)cc2)no1	> 100 µM	–	–
Cc1cc(NS(=O)(=O)c2ccc(Nc3nc(-c4ccccc4)cs3)cc2)no1	> 100 µM	–	–
FC(F)(F)c1ccc(-c2csc(Nc3ccc(-c4nnn[nH]4)c(C(F)(F)F)c3)n2)cc1	12.8 µM	7.8 µM	inhibition [5]: Active; inhibition [6]: Active; inhibition [7]: Active; inhibition [2]: Active
Fc1cc(Nc2nc(-c3ccc(C(F)(F)F)cc3)cs2)ccc1-c1nnn[nH]1	10.7 µM	6.6 µM	inhibition [5]: Active; inhibition [6]: Active; inhibition [7]: Active; inhibition [2]: Active
CN(c1ccc(-c2nnn[nH]2)cc1)c1nc(-c2ccc(C(F)(F)F)cc2)cs1	19 µM	11.6 µM	–
RNA-directed RNA polymerase L (Crimean-Congo hemorrhagic fever virus), Q6TQR6	–	–	Km [8]: 0.264 µM
Cc1cc(Nc2nc(-c3ccc(C(F)(F)F)cc3)cs2)ccc1-c1nnn[nH]1	20 µM	12.2 µM	–
COc1cc(-c2nnn[nH]2)ccc1Nc1nc(-c2ccc(C(F)(F)F)cc2)cs1	29.8 µM	18.2 µM	inhibition [2]: Active
FC(F)(F)c1ccc(-c2csc(Nc3ccc(-n4cnnn4)cc3)n2)cc1	> 100 µM	–	–
FC(F)(F)c1ccc(-c2coc(Nc3ccc(-c4nnn[nH]4)cc3)n2)cc1	18.2 µM	11.1 µM	inhibition [2]: Active
